{"source": "patent US20120058500A1", "about": "“PLATELET AGGREGATION USING A MICROFLUIDICS DEVICE” (Monash University, priority 2009, published 2012)", "molecules": {"B1": {"name": "c7E3 Fab: anti-integrin αIIbβ3 ab c7E3, used to block the platelet integrin αIIbβ3 (antibody, chains of the INN, looked up, V domains shown)", "VH": "EVQLQQSGTVLARPGASVKMSCEASGYTFTNYWMHWVKQRPGQGLEWIGAIYPGNSDTSYIQKFKGKAKLTAVTSTTSVYMELSSLTNEDSAVYYCTLYDGYYVFAYWGQGTLVTVSA", "VL": "EIVLTQSPVTLSVTPGDSVSLSCRASRDISNNLHWFQQTSHESPRLLIKYASQSMSGIPSRFSGSGSGTDFTLSINSVETEDFGMYFCQQTNSWPYTFGGGTKLEIK", "modifications": "Fab"}}, "key": {"[1]": {"tested_on": "platelet aggregation in human whole blood", "assay": "Anti-platelet inhibitor effects in microchannel, c85 g30 e85 100-100 μm format", "format": "cell-based", "settings": "10 mins pre-treatment, hirudin anti-coagulated whole blood, FIG. 22", "experimental": "(§1) Blood samples from subjects were taken via venisection of the antecubital vein using a 10 ml syringe fitted with a 19 guage needle containing 800 U/ml hirudin as anticoagulant.\n(§2) Blood perfusion studies through the device were carried out using hiridin (800 U/ml) anticoagulated whole blood taken from consenting human donors. Whole blood samples were incubated at 37° C. for 10 minutes with the lipophylic membrane dye DiOC6 (1 μg/ml) or DiICl2 (1 μg/ml) to allow the cells to be more readily visualised through the device.\nThe micro-geometry device used in the present example has a contraction angle (θc) of 85°, an expansion angle (θe) of 85°, a gap width of 30 μm, a gap length of 15 μm and channel entry and exit width of 100 μm (c85 g30 e85 100-100 μm format).\nThe following anti-platelet drugs were used either alone or in combination: • 1. Hirudin: Human whole blood anti-coagulated with Hirudin (800 U/ml) as a control. • 2. Hirudin+MRS: Human (hirudin anti-coagulated) whole blood pre-treated for 10 mins with 100 μM of the P2Y1 adenosine-5′-diphosphate (ADP) antagonist N6-methyl-2′-deoxyadenosine-3′,5′-bisphosphate (MRS2179). • 3. Hirudin+2Me: Human (hirudin anti-coagulate) whole blood pre-treated for 10 mins with 10 μM of the P2Y12 (ADP) antagonist 2-methylthio-AMP (2MesAMP). • 4. […]"}, "[2]": {"tested_on": "platelet aggregation in human blood", "settings": "treated samples versus normal samples, specific microchannel geometries", "excerpt": "It will be further appreciated that the device and method of the invention can be used to assay the effectiveness of particular drugs or substances."}, "[3]": {"tested_on": "platelet aggregation in whole blood", "assay": "Real-time epi-fluorescence imaging of DiOC6 labeled whole blood perfusion through the c60g20e60 microchannel", "format": "cell-based, human", "settings": "20 μg/ml; blood also pre-treated with apyrase, MRS2179, 2-MeSAMP, Indomethacin, hirudin; 16 μL/min, input strain rate 1,800 s-1", "experimental": "as §1, §2\nFIG. 20a represents real-time epi-fluorescence imaging of DiOC6 labeled whole blood perfusion at a constant flow rate of 16 μL/min (input strain rate=1,800 s−1) through the c60g20e60 geometric format over a 10 min timeframe, following pre-treatment for 10 minutes with the platelet inhibitors apyrase (0.02 U/ml), N6-methyl-2′-deoxyadenosine-3′,5′-bisphosphate (MRS2179 at 100 μM) and 2-methylthio-AMP (2-MeSAMP at 10 μM) to block ADP; Indomethacin (10 μM) to block TXA2; and hirudin (800 U/ml) to block thrombin. […] To investigate the platelet adhesion receptors mediating the aggregation response, whole blood samples were pretreated with the anti-integrin αIIbβ3 ab c7E3 (20 μg/ml) to block the platelet integrin αIIbβ3 or the anti-GPIb IgG Alma12 (50 μg/ml) to block platelet GPIb/V/IX engagement of VWF."}, "[4]": {"tested_on": "platelet aggregation in hirudin-anticoagulated whole blood", "assay": "Whole blood perfusion through step geometry micro-shear gradient device (c90 g10 e60 100-700 μm format), platelet aggregation traces", "format": "cell-based, human", "settings": "whole blood treated 10 minutes with 30 μg/ml prior to perfusion; input shear rate 1,800 s^-1; FIG. 11c", "experimental": "as §1, §2\nFIG. 11a is a representative micrograph (40× magnification) sequence of human (hirudin anti-coagulated) blood perfusion through a micro-shear gradient device consisting of an in-flow (entry) width of 100 μm, a contraction angle (θc) of 90°, a gap height of 10 μm, an expansion angle (θe)) of 60°, and an expansion/exit width of 700 μm. The grey arrow denotes the point of initial aggregation [t=12 sec], the black arrow designates the limit of thrombus growth in the expansion zone (representative of n=3 experiments).\nFIG. 11c comprises representative aggregation traces showing the response of whole blood perfusion through the PDMS microchannel device depicted in FIG. 11a. […]"}}, "note": "Positions of bridges follow the written chain, without caps; N, C: chain ends. Non-standard residues stand in square brackets, D forms with d. Residues, ends and D or L forms follow the SMILES beside them. hArg = N=C(N)NCCCC[C@H](N)C(=O)O; Mpa = O=C(O)CCS"}
{"molecule": "CNc1ncnc2c1ncn2[C@H]1C[C@H](OP(=O)(O)O)[C@@H](COP(=O)(O)O)O1", "note": "[MRS, N6-methyl-2′-deoxyadenosine-3′,5′-bisphosphate]", "values": [{"measurement": "effect on the aggregation profile in the device", "setting": "[1]; 100 μM, compared with the P2Y12 inhibitor", "result": "much more marked effect"}]}
{"molecule": "CSc1nc(N)c2ncn([C@@H]3O[C@H](COP(=O)(O)O)[C@@H](O)[C@H]3O)c2n1", "note": "[inhibitor of the P2Y12 (ADP) receptor, 2-methylthio-AMP]", "values": [{"measurement": "reduction in overall aggregation in the device", "setting": "[1]; 10 μM", "result": 50, "unit": "%"}]}
{"molecule": "N=C(N)NCCCC[C@@H]1NC(=O)CCSSC[C@@H](C(N)=O)NC(=O)[C@@H]2CCCN2C(=O)[C@H](Cc2c[nH]c3ccccc23)NC(=O)[C@H](CC(=O)O)NC(=O)CNC1=O", "note": "[integrilin] ([Mpa][hArg]GDWPC-NH2; disulfide 1-7)", "values": [{"measurement": "platelet aggregation profile versus normal samples", "setting": "[2]", "result": "different platelet aggregation profile"}]}
{"molecule": "B1", "values": [{"measurement": "platelet aggregation within the c60g20e60 geometry", "setting": "[3]", "result": "completely inhibited"}, {"measurement": "initial recruitment at the stenosis apex", "setting": "[4]", "result": "markedly delayed"}, {"measurement": "overall aggregation", "setting": "[4]", "result": "suppressed"}]}
